The text below walks through data of patent US20230406831A1, “COMPOUNDS AND METHODS OF INHIBITING BACTERIAL CHAPERONIN SYSTEMS” (THE TRUSTEES OF INDIANA UNIVERSITY, priority 2020, published 2023).

The test system of series [1] is S. aureus. Briefly: S. aureus bacterial proliferation assay. The series is classed as cell-based. The settings on record: cation adjusted BHI media, OD600 at 6-8 h; for EC50: Staphylococcus aureus, read-out: S. aureus Proliferation EC50. The method in brief: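 Growth in BHI with 25 mg/L Ca2+ and 12.5 mg/L Mg2+; log-phase cultures diluted to OD600 0.017 and exposed to compounds at 100 μM–46 nM (3-fold series). Stagnant 37 °C incubation, OD600 read at 6–8 h, corrected with bacteria-free plates; EC50 by variable-slope nonlinear regression.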

A short description of series [2]: HEK 293 kidney cell viability / cytotoxicity assay (Alamar Blue). The series is classed as cell-based. The settings on record: human.
Where [3] appears, read: Table 2, 48 h incubation, Alamar Blue, read-out: HEK 293 Kidney Cell Viability CC50.
Where [4] appears, read: HEK 293 kidney cells, Table 3, 48 h incubation, Alamar Blue, read-out: HEK 293 Kidney Cell Viability CC50.
Setting [5] is: HEK 293 kidney cells, Table 1, 48 h incubation, Alamar Blue, read-out: HEK 293 Kidney Cell Viability CC50.
Where [6] appears, read: HEK 293 kidney cells, Table 2, 48 h incubation, Alamar Blue, read-out: HEK 293 Kidney Cell Viability CC50.

Where two headings read alike, the source gives them in different places. Some results are limits rather than exact numbers.

On to `Cc1cc(C(C#N)c2ccc(Cl)cc2)c(Cl)cc1NC(=O)c1ccccc1Cl` (centres unmarked) [Compound 76, 2-chloro-N-(5-chloro-4-((4-chlorophenyl)(cyano)methyl)-2-methylphenyl)benzamide], for which the S. aureus Proliferation EC50 in series [1] (Table 2) is above 100 µM. In addition, the CC50 at 48 h in series [2] (setting [3]) is above 100 µM.

Regarding `COC(=O)c1ccc(NC(=O)c2cc(Cl)ccc2OC)cc1` [Compound 106, methyl 4-(5-chloro-2-methoxybenzamido)benzoate], in series [1] (Table 3), the EC50 is above 100 µM. In addition, in series [2] (setting [4]), the CC50 at 48 h amounted to 24 µM.

For `COc1ccc(Cl)cc1C(=O)Nc1ccccc1` [Compound 116, 5-chloro-2-methoxy-N-phenylbenzamide], the EC50 in series [1] (Table 3) was above 100 µM. In addition, the CC50 at 48 h in series [2] (setting [4]) was above 100 µM.

As to `O=C(Nc1ccc(Sc2nc3ccccc3s2)c(Cl)c1)c1cc(Br)cc(Br)c1O` [Compound 1, reference compound], in series [1] (Table 1), the EC50 was 0.3 µM. Further, the CC50 at 48 h in series [2] (setting [5]) came out at 73 µM.

Consider `Cc1cc(C(C#N)c2ccc(Cl)cc2)c(Cl)cc1NC(=O)c1cccc(Br)c1O` (centres unmarked) [Compound 48, 3-bromo-N-(5-chloro-4-((4-chlorophenyl)(cyano)methyl)-2-methylphenyl)-2-hydroxybenzamide], for which the EC50 in series [1] (Table 2) came out at 0.58 µM. The CC50 at 48 h in series [2] (setting [3]) came out at 43 µM.

With `CC(=O)Nc1ccc(NC(=O)c2cc(Cl)ccc2O)cc1` [Compound 105, N-(4-acetamidophenyl)-5-chloro-2-hydroxybenzamide], the EC50 in series [1] (Table 3) was above 100 µM. Moreover, the CC50 at 48 h in series [2] (setting [4]) worked out at 69 µM.

On to `O=C(Nc1ccc([N+](=O)[O-])cc1Cl)c1cc(Cl)ccc1O` [Niclosamide, reference compound], for which the EC50 in series [1] (Table 1) came out at 0.074 µM. Further, the CC50 at 48 h in series [2] (setting [5]) is 1.7 µM.

Regarding `Cc1cc(C(C#N)c2ccc(Cl)cc2)c(Cl)cc1NC(=O)c1cc(I)cc(I)c1O` (centres unmarked) [Closantel, reference compound], in series [1] (Table 1), the EC50 is 0.48 µM. In series [2], this compound displayed a CC50 at 48 h of 79 µM.

In turn, `Cc1cc(C(C#N)c2ccc(Cl)cc2)c(Cl)cc1NC(=O)c1ccc(O)cc1` (centres unmarked) [Compound 66, N-(5-chloro-4-((4-chlorophenyl)(cyano)methyl)-2-methylphenyl)-4-hydroxybenzamide] came in with a S. aureus Proliferation EC50 in series [1] (Table 2) of 4.9 µM. Moreover, in series [2] (setting [6]), the CC50 at 48 h is 65 µM.

For the compound `O=C(Nc1ccc(CCc2ccccc2)cc1)c1cc(Cl)ccc1O` [Compound 101], the EC50 in series [1] (Table 3) stood at 83 µM. For the same compound, the CC50 at 48 h in series [2] (setting [4]) was 4.3 µM.

On to `COc1ccc(Cl)cc1C(=O)Nc1ccc(C(=O)O)cc1` [Compound 108, 4-(5-chloro-2-methoxybenzamido)benzoic acid], for which the EC50 in series [1] (Table 3) is above 100 µM. The CC50 at 48 h in series [2] (setting [4]) is above 100 µM.

Take `COc1ccc(Cl)cc1C(=O)Nc1cc(Cl)c(C(C#N)c2ccc(Cl)cc2)cc1C` (centres unmarked) [Compound 57, 5-chloro-N-(5-chloro-4-((4-chlorophenyl)(cyano)methyl)-2-methylphenyl)-2-methoxybenzamide]: the EC50 in series [1] (Table 3) was above 100 µM. The same compound showed a S. aureus Proliferation EC50 in series [1] (Table 2) above 100 µM. Also, the CC50 at 48 h in series [2] (setting [3]) was found to be 28 µM.

For the compound `COc1ccc(Cl)cc1C(=O)Nc1ccc(Oc2ccc(Cl)cc2)c(Cl)c1` [Compound 86, 5-chloro-N-(3-chloro-4-(4-chlorophenoxy)phenyl)-2-methoxybenzamide], the EC50 in series [1] (Table 3) is above 100 µM. Besides, the CC50 at 48 h in series [2] (setting [4]) was above 100 µM.

Consider `O=C(Nc1ccc(O)cc1)c1cc(Cl)ccc1O` [Compound 115, 5-chloro-2-hydroxy-N-(4-hydroxyphenyl)benzamide], for which the EC50 in series [1] (Table 3) is above 100 µM. In addition, in series [2] (setting [4]), the CC50 at 48 h is above 100 µM.

Regarding `Cc1cc(C(C#N)c2ccc(Cl)cc2)c(Cl)cc1NC(=O)c1cccc(F)c1` (centres unmarked) [Compound 80, N-(5-chloro-4-((4-chlorophenyl)(cyano)methyl)-2-methylphenyl)-3-fluorobenzamide], in series [1] (Table 2), the S. aureus Proliferation EC50 is above 100 µM. Further, the CC50 at 48 h in series [2] (setting [6]) is 70 µM.

Take `COc1ccc(Cl)cc1C(=O)Nc1ccc(C(C#N)c2ccccc2)cc1` (centres unmarked) [Compound 84, 5-chloro-N-(4-(cyano(phenyl)methyl)phenyl)-2-methoxybenzamide]: in series [1] (Table 3), the EC50 was above 100 µM. The CC50 at 48 h in series [2] (setting [4]) is above 100 µM.

As to `O=C(Nc1ccc(Oc2ccccc2)cc1)c1cc(Cl)ccc1O` [Compound 93, 5-chloro-2-hydroxy-N-(4-phenoxyphenyl)benzamide], the EC50 in series [1] (Table 3) was 0.36 µM. Further, in series [2] (setting [4]), the CC50 at 48 h amounted to 20 µM.

Take `COc1ccc(Cl)cc1C(=O)Nc1ccc(Sc2nc3ccccc3s2)cc1` [Compound 96, N-(4-(benzo[d]thiazol-2-ylthio)phenyl)-5-chloro-2-methoxybenzamide]: the EC50 in series [1] (Table 3) is above 100 µM. Also, the CC50 at 48 h in series [2] (setting [4]) amounted to 56 µM.

Regarding `Cc1cc(C(C#N)c2ccc(Cl)cc2)c(Cl)cc1NC(=O)c1ccccc1N` (centres unmarked) [Compound 70, 2-amino-N-(5-chloro-4-((4-chlorophenyl)(cyano)methyl)-2-methylphenyl)benzamide], in series [1] (Table 2), the S. aureus Proliferation EC50 is above 100 µM. For the same compound, the CC50 at 48 h in series [2] (setting [6]) was 32 µM.

For the compound `COc1ccc(Cl)cc1C(=O)Nc1ccc(Oc2ccccc2)c(Cl)c1` [Compound 90, 5-chloro-N-(3-chloro-4-phenoxyphenyl)-2-methoxybenzamide], the EC50 in series [1] (Table 3) is above 100 µM. Further, the CC50 at 48 h in series [2] (setting [4]) is above 100 µM.

As for `O=C(Nc1ccccc1)c1cc(Cl)ccc1O` [Compound 117, 5-chloro-2-hydroxy-N-phenylbenzamide], the EC50 in series [1] (Table 3) was 2.2 µM. In series [2] (setting [4]), the CC50 at 48 h was 13 µM.

On to `COc1ccc(C(=O)Nc2cc(Cl)c(C(C#N)c3ccc(Cl)cc3)cc2C)cc1` (centres unmarked) [Compound 63, N-(5-chloro-4-((4-chlorophenyl)(cyano)methyl)-2-methylphenyl)-4-methoxybenzamide], for which, in series [1] (Table 2), the S. aureus Proliferation EC50 is above 100 µM. Moreover, the CC50 at 48 h in series [2] (setting [6]) is above 100 µM.

As for `COc1ccc(Cl)cc1C(=O)Nc1ccc(Oc2ccc(Cl)cc2)cc1` [Compound 88, 5-chloro-N-(4-(4-chlorophenoxy)phenyl)-2-methoxybenzamide], in series [1] (Table 3), the EC50 is above 100 µM. Besides, in series [2] (setting [4]), the CC50 at 48 h was above 100 µM.

With `O=C(Nc1ccc(Cc2ccccc2)cc1)c1cc(Cl)ccc1O` [Compound 99, N-(4-benzylphenyl)-5-chloro-2-hydroxybenzamide], in series [1] (Table 3), the EC50 is above 100 µM. Moreover, in series [2] (Table 3, 48 h incubation, Alamar Blue, read-out: HEK 293 Kidney Cell Viability CC50), the CC50 at 48 h amounted to 19 µM.

In series [1] (Table 2), `Cc1cc(C(C#N)c2ccc(Cl)cc2)c(Cl)cc1NC(=O)c1ccc(Cl)cc1` (centres unmarked) [Compound 78, 4-chloro-N-(5-chloro-4-((4-chlorophenyl)(cyano)methyl)-2-methylphenyl)benzamide] came in with a S. aureus Proliferation EC50 above 100 µM. The CC50 at 48 h in series [2] (setting [6]) turned out to be 50 µM.

On to `N#CC(c1ccccc1)c1ccc(NC(=O)c2cc(Cl)ccc2O)cc1` (centres unmarked) [Compound 85, 5-chloro-N-(4-(cyano(phenyl)methyl)phenyl)-2-hydroxybenzamide], for which the EC50 in series [1] (Table 3) was 1.1 µM. The CC50 at 48 h in series [2] (setting [4]) came to 29 µM.

The compound `Cc1cc(C(C#N)c2ccc(Cl)cc2)c(Cl)cc1NC(=O)c1ccccc1F` (centres unmarked) [Compound 79, N-(5-chloro-4-((4-chlorophenyl)(cyano)methyl)-2-methylphenyl)-2-fluorobenzamide] had a S. aureus Proliferation EC50 in series [1] (Table 2) above 100 µM. In addition, in series [2] (setting [6]), the CC50 at 48 h came to 85 µM.

For the compound `COc1ccc(Cl)cc1C(=O)Nc1ccc(CCc2ccccc2)cc1` [Compound 100, 5-chloro-2-methoxy-N-(4-phenethylphenyl)benzamide], in series [1] (Table 3), the EC50 was above 100 µM. The CC50 at 48 h in series [2] (setting [4]) was above 100 µM.

In series [1] (Table 2), `Cc1cc(C(C#N)c2ccc(Cl)cc2)c(Cl)cc1NC(=O)c1ccc(N)cc1` (centres unmarked) [Compound 72, 4-amino-N-(5-chloro-4-((4-chlorophenyl)(cyano)methyl)-2-methylphenyl)benzamide] registered a S. aureus Proliferation EC50 above 100 µM. In addition, the CC50 at 48 h in series [2] (setting [6]) was determined as 53 µM.
